Source: US7087768B2, “Fumagillol derivatives and preparing method thereof” (Equispharm Co., Ltd., priority 2001, dated 2006)
≈ marks a conversion by molar mass, not a printed value. Where two headings read alike, the source gives them in different places.

System: HUVECs (human umbilical vein endothelial cells)
Test: Inhibitory effect of fumagillol derivative on HUVEC cell growth (colorimetry)
Format: cell-based
Conditions: Homo sapiens
Experimental: Using the HUVECs (human umbilical vein endothelial), the effect of the fumagillol derivative of the present invention on cell growth was evaluated.
The HUVECs were added to M199 medium supplemented with 20% FBS (fetal bovine serum), 100 U/ml penicillin, 100 μg/ml streptomycin, 1.5 g/L sodium bicarbonate, 0.1 mg/ml endothelial cell growth supplement (Sigma) and 0.1 mg/ml heparin (Sigma), after which the cells were incubated in an incubator at 37° C. under 5% CO2. Cells were subcultured a maximum of 8 times before being discarded.
In order to evaluate inhibitory activity of the fumagillin derivative on growth of HUVECs, the inventive compound was dissolved in DMSO and its concentration was adjusted from 10 mM to 1 mM. Cells were aliquotted to 96 well plates at a density of 2×10^3 cells per well and incubated for about 12–24 hours to be properly attached to the plate. Thereafter, the medium was replaced with new medium. The cells were treated with the compound obtained from each of the above examples at various concentration ranges of from 10 μM to […], and cultured for 2–3 days, followed by removing 100 μl of the medium from each well.
Colorimetry was performed to determine the extent of cell growth. The cells on each plate was added with 20 μl of aqueous one solution and then incubated at 37° C. under 5% CO2 for 2 hours. Using a 96-well plate reader, absorption was measured at 490 nm.
As such, a conventional TNP-470 having angiogenesis inhibitory effect was used as a control.

[1] = HUVEC growth, cultured 2–3 days with compound, absorption at 490 nm, read-out: IC50
[2] = HUVEC, HUVEC growth, cultured 2–3 days with compound, absorption at 490 nm, read-out: IC50

COc1ccc(NCC(=O)O[C@@H]2CC[C@]3(CO3)[C@@H]([C@@]3(C)OC3CC=C(C)C)[C@@H]2OC)cc1OC (stereo partly drawn) [Ex. 4, 6-O-(3,4-dimethoxyaniline)acetyl fumagillol]
IC50 [1]: 0.08 ng/mL (≈ 0.168 nM)

COc1cnc(NCC(=O)O[C@@H]2CC[C@]3(CO3)[C@@H]([C@@]3(C)OC3CC=C(C)C)[C@@H]2OC)nc1 (stereo partly drawn) [Ex. 37, 6-O-(5-methoxypyrimidine-2-amino)acetyl fumagillol]
IC50 [1]: 0.017 ng/mL (≈ 0.038 nM)

CO[C@@H]1[C@H](OC(=O)CNC2CCCCC2)CC[C@]2(CO2)[C@H]1[C@@]1(C)OC1CC=C(C)C (stereo partly drawn) [Ex. 66, 6-O-(cyclohexylamino)acetyl fumagillol]
IC50 [2]: 0.6 ng/mL (≈ 1.42 nM)

CO[C@@H]1[C@H](OC(=O)CNCCBr)CC[C@]2(CO2)[C@H]1[C@@]1(C)OC1CC=C(C)C (stereo partly drawn) [Ex. 61, 6-O-(2-bromoethylamino)acetyl fumagillol]
IC50 (HUVEC): 2800 ng/mL (≈ 6270 nM)

COc1ccc(NCC(=O)O[C@@H]2CC[C@]3(CO3)[C@@H]([C@@]3(C)OC3CC=C(C)C)[C@@H]2OC)c(OC)c1OC (stereo partly drawn) [Ex. 25]
IC50 [2]: 0.31 ng/mL (≈ 0.613 nM)

CO[C@@H]1[C@H](OC(=O)CNc2ccc([N+](=O)[O-])cc2)CC[C@]2(CO2)[C@H]1[C@@]1(C)OC1CC=C(C)C (stereo partly drawn) [Ex. 24, 6-O-(4-nitroaniline)acetyl fumagillol]
IC50 [2]: 181 ng/mL (≈ 393 nM)

C=CCC(NCC(=O)O[C@@H]1CC[C@]2(CO2)[C@@H]([C@@]2(C)OC2CC=C(C)C)[C@@H]1OC)C(=O)OC (stereo partly drawn) [Ex. 76, 6-O-(allylglycinemethylester)acetyl fumagillol]
IC50 [1]: 1490 ng/mL (≈ 3300 nM)

CO[C@@H]1[C@H](OC(=O)CNC(C)CN(C)C)CC[C@]2(CO2)[C@H]1[C@@]1(C)OC1CC=C(C)C (stereo partly drawn) [Ex. 68, 6-O-(2-dimethylamino-1-methylethylamino)acetyl fumagillol]
IC50 [2]: 240 ng/mL (≈ 565 nM)

CO[C@@H]1[C@H](OC(=O)CNc2ccc(Cl)cc2)CC[C@]2(CO2)[C@H]1[C@@]1(C)O[C@@H]1CC=C(C)C [Ex. 19, 6-O-(4-chloroaniline)acetyl fumagillol]
IC50 [2]: 174 ng/mL (≈ 387 nM)

COc1ccc(NCC(=O)O[C@@H]2CC[C@]3(CO3)[C@@H]([C@@]3(C)OC3CC=C(C)C)[C@@H]2OC)cc1OC(C)C (stereo partly drawn) [Ex. 12, 6-O-(3-isopropoxy-4-methoxyaniline)acetyl fumagillol]
IC50 [2]: 0.07 ng/mL (≈ 0.139 nM)

CO[C@@H]1[C@H](OC(=O)CNc2ccc(OC(C)=O)cc2)CC[C@]2(CO2)[C@H]1[C@@]1(C)OC1CC=C(C)C (stereo partly drawn) [Ex. 33, 6-O-(4-acetoxyaniline)acetyl fumagillol]
IC50 [2]: 109 ng/mL (≈ 230 nM)

CCC(C)C(C)NCC(=O)O[C@@H]1CC[C@]2(CO2)[C@@H]([C@@]2(C)OC2CC=C(C)C)[C@@H]1OC (stereo partly drawn) [Ex. 52, 6-O-(1,2-dimethylbutylamino)acetyl fumagillol]
IC50 [2]: 290 ng/mL (≈ 685 nM)

CO[C@@H]1C(OC(=O)CNC2CCC2)CC[C@](O)(CCl)[C@H]1C1(C)OC1CC=C(C)C (stereo in doubt) [Ex. 79, 4-((cyclobutylamino)acetyl)oxy-2-(1,2-epoxy-1,5-dimethyl-4-hexenyl)-3-methoxy-1-chloromethyl-1-cyclohexanol]
IC50 [2]: 0.037 ng/mL (≈ 0.086 nM)

CO[C@@H]1[C@H](OC(=O)CNC(C)CCC=C(C)C)CC[C@]2(CO2)[C@H]1[C@@]1(C)OC1CC=C(C)C (stereo partly drawn) [Ex. 58, 6-O-(1,5-dimethyl-4-hexenylamino)acetyl fumagillol]
IC50 [2]: 415 ng/mL (≈ 923 nM)

CO[C@@H]1[C@H](OC(=O)CNC2CCC(C(C)(C)C)CC2)CC[C@]2(CO2)[C@H]1[C@@]1(C)OC1CC=C(C)C (stereo partly drawn) [Ex. 67, 6-O-(4-tert-butyl-cyclohexylamino)acetyl fumagillol]
IC50 [2]: 0.06 ng/mL (≈ 0.126 nM)

COC(=O)C(C)NCC(=O)O[C@@H]1CC[C@]2(CO2)[C@@H]([C@@]2(C)OC2CC=C(C)C)[C@@H]1OC (stereo partly drawn) [Ex. 74, 6-O-(alaninemethylesteramino)acetyl fumagillol]
IC50 [2]: 800 ng/mL (≈ 1880 nM)

CCC(CC)NCC(=O)O[C@@H]1CC[C@]2(CO2)[C@@H]([C@@]2(C)OC2CC=C(C)C)[C@@H]1OC (stereo partly drawn) [Ex. 50, 6-O-(1-ethyl-propylamino)acetyl fumagillol]
IC50 [2]: 24 ng/mL (≈ 58.6 nM)

CO[C@@H]1[C@H](OC(=O)CNc2ccc(C#N)cc2)CC[C@]2(CO2)[C@H]1[C@@]1(C)OC1CC=C(C)C (stereo partly drawn) [Ex. 34, 6-O-(4-cyanoaniline)acetyl fumagillol]
IC50 [2]: 98 ng/mL (≈ 222 nM)
